# From article PMC7587383, “Pimarane Diterpenoids from the Seeds of Caesalpinia minax as PTP1B Inhibitors and Insulin Sensitizers” (Molecules, 2020)
# Target: T1, Protein-tyrosine phosphatase 1B (PTP1B) (Homo sapiens, UniProt P18031)
# T1 construct: gene PTPN1
# T1 sequence (P18031 1-435): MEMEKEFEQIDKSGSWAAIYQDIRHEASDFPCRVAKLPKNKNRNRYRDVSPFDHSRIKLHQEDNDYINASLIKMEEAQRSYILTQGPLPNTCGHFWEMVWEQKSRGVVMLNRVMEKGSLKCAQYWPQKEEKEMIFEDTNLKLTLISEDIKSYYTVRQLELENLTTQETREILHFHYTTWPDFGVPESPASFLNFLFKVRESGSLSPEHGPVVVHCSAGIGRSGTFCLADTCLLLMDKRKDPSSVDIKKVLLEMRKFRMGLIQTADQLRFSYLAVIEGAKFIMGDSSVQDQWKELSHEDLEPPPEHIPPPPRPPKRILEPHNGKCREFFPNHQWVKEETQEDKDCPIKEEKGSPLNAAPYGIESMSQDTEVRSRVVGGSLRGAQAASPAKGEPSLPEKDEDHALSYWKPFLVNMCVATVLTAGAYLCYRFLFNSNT
# Test: pNPP dephosphorylation assay with human recombinant PTP1B; Lineweaver-Burk and Dixon plots
# Format: biochemical
smiles,measurement,value
"C=C[C@@]1(C)CCC2=C(C1)C(=O)C[C@H]1C(C)(C)C[C@H](O)C[C@]21C [compound 1, 2α-hydroxy-7-oxo-pimara-8(9),15-diene]",Ki,13.7 ± 2.72 µM
